For assay [1], the target named is T1, human CB1 receptor (Homo sapiens, UniProt P21554).
T1 construct: expressed in transfected cells; host or cells: SK-N-MC cells, stably transfected with pcDNA3 CB-1 (human); semi-purified membrane pellet
The experiment in a line: Binding assay for CB1 agonists or inverse agonists ([3H]-CP-55,940 displacement, SK-N-MC membranes). The settings on record: for inhibition at 0.25 µM: read-out: CB1 receptor binding percent inhibition. On the procedure:
(§1) The human CB1 and CB2 receptors were stably expressed in SK-N-MC cells transfected with pcDNA3 CB-1 (human) or pcDNA3 CB-2 (human). The cells were grown in T-180 cell culture flasks under standard cell culture conditions at 37° C. in a 5% CO2 atmosphere. The cells were harvested by trysinization and homogenized in a homogenization buffer (10 mM Tris, 0.2 mM MgCl2, 5 mM KCl, with protease inhibitors aprotinin, leupeptin, pepstatin A and bacitracin) and centrifuged (2000 g). The supernatant was then centrifuged in 2M sucrose (31,300 g) to produce a semi-purified membrane pellet. The pellet was resuspended in homogenization and stored at −80° C.
(§2) On the day of the assay, the pellet was thawed on ice and diluted in assay buffer (50 mM Tris-HCl, 5 mM MgCl2, 2.5 mM EDTA, 0.5 mg/mL fatty acid free bovine serum albumin, pH 7.5). […] The plate was covered and incubated for 90 minutes at 30° C. The contents were then aspirated onto a Packard Unifilter GF/C filter bottom plate prewet with 0.5% polyethyleneimine. The wells of the polypropylene plate were rinsed and aspirated seven times with a 0.9% saline-0.5% Tween 20 solution. The Unifilter plate was dried, a scintillation cocktail was added to each well and the counts representing binding were quantitated in a TopCount scintillation counter.
(§3) For compounds tested, an IC50 binding value was obtained from percent inhibition studies in which various test concentrations were used. The binding value was calculated by linear regression.

Assay [2] has as its target T1, human CB1 receptor. The experiment in a line: Functional cell-based assay, CB1 receptor mediated change in CRE β-gal expression (adenylate cyclase activity). The settings on record: for CB1 Receptor Functional Activity (change in functional activity): one compound concentration, vehicle treated cell = 100%. An excerpt:
The CB1 and CB2 receptors are G-protein coupled receptors (GPCR), which influence cell function via the Gi-protein. These receptors modulate the activity of intracellular adenylate cyclase, which in turn produces the intracellular signal messenger cyclic-AMP (cAMP).
At baseline, or during non-ligand bound conditions, these receptors are constitutively active and tonically suppress adenylate cyclase activity. The binding of an agonist causes further receptor activation and produces additional suppression of adenylate cyclase activity. The binding of an inverse agonist inhibits the constitutive activity of the receptors and results in an increase in adenylate cyclase activity.
Test compounds were evaluated in SK-N-MC cells which, using standard transfection procedures, were stably transfected with human cDNA for pcDNA3-CRE β-gal and pcDNA3 CB1 receptor (human) or pcDNA3 CB2 receptor (human). By expressing CRE β-gal, the cells produced β-galactosidase in response to CRE promoter activation by cAMP. Cells expressing CRE β-gal and either the human CB1 or CB2 receptor will produce less β-galactosidase when treated with a CB1/CB2 agonist and will produce more β-galactosidase when treated with a CB1/CB2 inverse agonist.
The cells were grown in 96-well plates under standard cell culture conditions at 37° C. in a 5% CO2 atmosphere. After 3 days, the media was removed and a test compound in media (wherein the media was supplemented with 2 mM L-glutamine, […] sodium pyruvate, 0.1% low fatty acid FBS (fetal bovine serum) and antibiotics) was added to the cell. The plates were incubated for 30 minutes at 37° C. and the plate cells were then treated with forskolin over a 4-6 hour period, then washed and lysed. The β-galactosidase activity was quantitated using commercially available kit reagents (Promega Corp. Madison, Wis.) and a Vmax Plate Reader (Molecular Devices, Inc).
The change in β-galactosidase activity was determined by setting a vehicle treated cell's activity value at 100% and expressing the β-galactosidase activity measured in a corresponding compound treated cell as a percent of the vehicle treated cell activity.
The EC50 value for functional activity for compounds tested was calculated by linear regression and was obtained from studies in which varying compound concentrations were used.
Where an EC50 value was not obtained for a test compound, the value shown (in %) represents change in functional activity and was obtained from a study in which one compound concentration was used.

Another assay concerns the target T2, human CB2 receptor (Homo sapiens, UniProt P34972).
T2 construct: expressed in transfected cells; host or cells: SK-N-MC cells, stably transfected with pcDNA3 CB-2 (human); semi-purified membrane pellet
Kind of assay: Binding assay for CB2 agonists or inverse agonists ([3H]-CP-55,940 displacement, SK-N-MC membranes). The settings on record: read-out: CB2 receptor binding percent inhibition. The method, then: as §1, §2, §3

Setting [3] is: test concentration 0.25 μM (footnote 3).
The mark [4] stands for this setting: CB1 Receptor Functional Inverse Agonist EC50, SK-N-MC cells, CRE β-gal, forskolin.

Where two headings read alike, the source gives them in different places.

From US8119621B2, “Tetrahydro-cyclopentyl pyrazole cannabinoid modulators” (Janssen Pharmaceutica N.V., priority 2005, dated 2012) come the findings set out here.

T2 sequence (P34972 whole entry): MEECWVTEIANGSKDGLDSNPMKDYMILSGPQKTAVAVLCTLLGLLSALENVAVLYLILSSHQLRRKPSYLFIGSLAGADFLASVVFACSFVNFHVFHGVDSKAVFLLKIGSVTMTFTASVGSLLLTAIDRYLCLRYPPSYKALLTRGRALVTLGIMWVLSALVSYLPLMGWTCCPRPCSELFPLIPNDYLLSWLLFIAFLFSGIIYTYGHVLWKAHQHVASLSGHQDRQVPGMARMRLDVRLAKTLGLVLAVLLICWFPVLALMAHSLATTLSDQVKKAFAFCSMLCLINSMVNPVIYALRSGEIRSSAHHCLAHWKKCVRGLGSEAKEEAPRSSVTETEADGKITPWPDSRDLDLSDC
T1 sequence (P21554 whole entry): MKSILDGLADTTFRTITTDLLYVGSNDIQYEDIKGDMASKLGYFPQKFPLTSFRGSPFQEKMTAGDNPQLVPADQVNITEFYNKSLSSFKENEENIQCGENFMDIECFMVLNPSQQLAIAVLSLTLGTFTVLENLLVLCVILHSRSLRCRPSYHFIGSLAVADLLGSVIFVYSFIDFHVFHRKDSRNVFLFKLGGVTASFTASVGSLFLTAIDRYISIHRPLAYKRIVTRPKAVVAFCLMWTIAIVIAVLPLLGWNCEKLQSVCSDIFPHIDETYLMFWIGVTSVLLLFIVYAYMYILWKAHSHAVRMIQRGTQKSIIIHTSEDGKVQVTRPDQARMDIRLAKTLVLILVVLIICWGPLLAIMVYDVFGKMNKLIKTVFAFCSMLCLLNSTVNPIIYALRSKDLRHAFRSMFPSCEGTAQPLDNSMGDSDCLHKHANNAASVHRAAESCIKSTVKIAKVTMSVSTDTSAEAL

Regarding `C[C@H](NC(=O)c1nn(-c2ccc(F)cc2F)c2c1CCC2Cc1cccc(F)c1)c1ccccc1` (stereo partly drawn) [Cpd 18, 1-(2,4-difluoro-phenyl)-6-(3-fluoro-benzyl)-1,4,5,6-tetrahydro-cyclopentapyrazole-3-carboxylic acid [(1S)-1-phenyl-ethyl]-amide], the inhibition at 0.25 µM on human CB1 receptor [1] (setting [3]) is 66%; at human CB2 receptor (setting [3]), 19%. Also, the EC50 on human CB1 receptor [2] came to 10 µM.

Take `O=C(c1nn(-c2ccc(F)cc2F)c2c1CCC2Cc1cccc(F)c1)N1CCCCC1` (stereo not shown) [Cpd 8, [1-(2,4-difluoro-phenyl)-6-(3-fluoro-benzyl)-1,4,5,6-tetrahydro-cyclopentapyrazol-3-yl]-piperidin-1-yl-methanone]: the results for the inhibition at 0.25 µM on human CB1 receptor [1] (setting [3]) and on human CB2 receptor (setting [3]) were 6% and 0%, respectively. The “CB1 Receptor Functional Activity (change in functional activity)” value at human CB1 receptor [2] was determined as 21%.

`O=C(NN1CCCCC1)c1nn(-c2ccc(F)cc2F)c2c1CCC2Cc1cccc(F)c1` (stereo not shown) [Cpd 6, 1-(2,4-difluoro-phenyl)-6-(3-fluoro-benzyl)-1,4,5,6-tetrahydro-cyclopentapyrazole-3-carboxylic acid piperidin-1-ylamide]: the inhibition at 0.25 µM on human CB1 receptor [1] (setting [3]) came out at 4%; on human CB2 receptor (setting [3]), 12%. For the same compound, on human CB1 receptor [2], the concentration for a half-maximal effect (EC50) was 0.2 µM.

Consider `CCOC(=O)[C@H]1C2CCC(C2)[C@H]1NC(=O)c1nn(-c2ccc(F)cc2F)c2c1CCC2Cc1cccc(F)c1` (stereo partly drawn) [Cpd 13, (2S,3R)-3-{[1-(2,4-difluoro-phenyl)-6-(3-fluoro-benzyl)-1,4,5,6-tetrahydro-cyclopentapyrazole-3-carbonyl]-amino}-bicyclo[2.2.1]heptane-2-carboxylic acid ethyl ester], for which the inhibition at 0.25 µM on human CB1 receptor [1] (setting [3]) amounted to 58%; on human CB2 receptor (setting [3]), 44%. Moreover, the “CB1 Receptor Functional Activity (change in functional activity)” value on human CB1 receptor [2] came out at 24%.

For the compound `C[C@@H](NS(=O)(=O)/C=C/c1nn(-c2ccc(F)cc2F)c2c1CCC2Cc1cccc(F)c1)C1CCCCC1` (stereo partly drawn) [Cpd 5, (2E)-2-[1-(2,4-difluoro-phenyl)-6-(3-fluoro-benzyl)-1,4,5,6-tetrahydro-cyclopentapyrazol-3-yl]-ethenesulfonic acid [(1R)-1-cyclohexyl-ethyl]-amide], the inhibition at 0.25 µM on human CB1 receptor [1] (setting [3]) worked out at 44%; on human CB2 receptor (setting [3]), 4%. The same compound had an EC50 at human CB1 receptor [2] (setting [4]) of 0.2 µM.

For `COC(=O)[C@@H](Cc1ccc(O)cc1)NC(=O)c1nn(-c2ccc(F)cc2F)c2c1CCC2Cc1cccc(F)c1` (stereo partly drawn) [Cpd 15, (2R)-2-{[1-(2,4-difluoro-phenyl)-6-(3-fluoro-benzyl)-1,4,5,6-tetrahydro-cyclopentapyrazole-3-carbonyl]-amino}-3-(4-hydroxy-phenyl)-propionic acid methyl ester], the results for the inhibition at 0.25 µM on human CB1 receptor [1] (setting [3]) and at human CB2 receptor (setting [3]) were 54% and 50%, respectively. The “CB1 Receptor Functional Activity (change in functional activity)” value at human CB1 receptor [2] is −15%.

Regarding `O=S(=O)(/C=C/c1nn(-c2ccc(F)cc2F)c2c1CCC2Cc1cccc(F)c1)NN1CCOCC1` (stereo not shown) [Cpd 2, (2E)-2-[1-(2,4-difluoro-phenyl)-6-(3-fluoro-benzyl)-1,4,5,6-tetrahydro-cyclopentapyrazol-3-yl]-ethenesulfonic acid morpholin-4-ylamide], the inhibition at 0.25 µM stood at 0% on human CB1 receptor [1] (setting [3]) and 21% on human CB2 receptor (setting [3]). Besides, the “CB1 Receptor Functional Activity (change in functional activity)” value on human CB1 receptor [2] stood at 58%.

With `C[C@@H](NC(=O)c1nn(-c2ccc(F)cc2F)c2c1CCC2Cc1cccc(F)c1)C1CCCCC1` (stereo partly drawn) [Cpd 21, 1-(2,4-difluoro-phenyl)-6-(3-fluoro-benzyl)-1,4,5,6-tetrahydro-cyclopentapyrazole-3-carboxylic acid [(1R)-1-cyclohexyl-ethyl]-amide], at human CB1 receptor [1], the IC50 was determined as 0.08 µM and the inhibition at 0.25 µM worked out at 67%. This compound yielded an EC50 on human CB1 receptor [2] (setting [4]) of 0.04 µM. Also, at human CB2 receptor, the inhibition at 0.25 µM worked out at 61%.

Consider `C[C@@H](NC(=O)c1nn(-c2ccc(F)cc2F)c2c1CCC2Cc1cccc(F)c1)c1ccccc1` (stereo partly drawn) [Cpd 19, 1-(2,4-difluoro-phenyl)-6-(3-fluoro-benzyl)-1,4,5,6-tetrahydro-cyclopentapyrazole-3-carboxylic acid [(1R)-1-phenyl-ethyl]-amide], for which the figures for the inhibition at 0.25 µM on human CB1 receptor [1] (setting [3]) and at human CB2 receptor (setting [3]) were 52% and 26%, respectively. For the same compound, at human CB1 receptor [2], the concentration giving a half-maximal response (EC50) came to 0.2 µM.

In the case of `C[C@@H](NS(=O)(=O)/C=C/c1nn(-c2ccc(F)cc2F)c2c1CCC2Cc1cccc(F)c1)c1ccccc1` (stereo partly drawn) [Cpd 4, (2E)-2-[1-(2,4-difluoro-phenyl)-6-(3-fluoro-benzyl)-1,4,5,6-tetrahydro-cyclopentapyrazol-3-yl]-ethenesulfonic acid [(1R)-1-phenyl-ethyl]-amide], the inhibition at 0.25 µM on human CB1 receptor [1] amounted to 24%; on human CB2 receptor, 17%. For the same compound, the “CB1 Receptor Functional Activity (change in functional activity)” value at human CB1 receptor [2] was determined as 34%.

Regarding `COC(=O)[C@@H](Cc1ccc(F)cc1)NC(=O)c1nn(-c2ccc(F)cc2F)c2c1CCC2Cc1cccc(F)c1` (stereo partly drawn) [Cpd 14, (2R)-2-{[1-(2,4-difluoro-phenyl)-6-(3-fluoro-benzyl)-1,4,5,6-tetrahydro-cyclopentapyrazole-3-carbonyl]-amino}-3-(4-fluoro-phenyl)-propionic acid methyl ester], the values for the inhibition at 0.25 µM at human CB1 receptor [1] (setting [3]) and on human CB2 receptor (setting [3]) were 50% and 30%, respectively. Further, at human CB1 receptor [2], the “CB1 Receptor Functional Activity (change in functional activity)” value is 48%.

By inhibition is commonly meant the relative decrease from the control value, in per cent. A word on the EC50: it is the concentration that produces a half-maximal response. Low readings indicate an effect from little substance, high ones a need for much substance. For orientation: IC50 means the concentration needed to halve the response being measured. A high value points to a need for much substance.
